Experimental data published in US9815854B2, “3-(3H-imidazo[4,5-B]pyridin-2-yl)-1H-pyrazolo[3,4-C]pyridine and therapeutic uses thereof” (Samumed, LLC, priority 2014, dated 2017).

Assays:
[1] = tested on: primary human fibroblasts derived from IPF patients (LL29 cells); assay: Inhibition of the fibrotic process in TGF-β1-treated primary human fibroblasts from IPF patients (αSMA staining); assay type: cell-based; conditions: Fibroblast, 96 h, TGF-β1 20 ng/mL, 4 days, read-out: Inhibition of fibrosis EC50
Excerpt: The above synthesized compounds were screened using primary human fibroblasts (derived from IPF patients) treated with TGF-β1 to determine their ability to inhibit the fibrotic process.
Human Fibroblast Celt Culture: Primary human fibroblasts derived from IPF patients (LL29 cells) [^1Xiaoqiu Liu, et.al., “Fibrotic Luna Fibroblasts Show Blunted Inhibition by cAMP Due to Deficient cAMP Response Element-Binding Protein Phosphorylation”, Journal of Pharmacology and Experimental Therapeutics (2005), 315(2), 678-687; ^2Watts, K. L., et.al., “RhoA signaling modulates cyclin D1 expression in human lung fibroblasts; implications for idiopathic pulmonary fibrosis”, Respiratory Research (2006), 7(1), 88] were obtained from American Type Culture Collection (ATCC) and expanded in F12 medium supplemented with 15% Fetal Bovine Serum and Penicillin/Streptomycin.
Compound Screening: Each compound was dissolved in DMSO as a 10 mM stock and used to prepare compound source plates. Serial dilution (1:2, 11-point dose-response curves from 10 μM to […]) and compound transfer was performed using the ECHO 550 (Lahcyte, Sunnyvale, Calif.) into 384-well clear bottom assay plates (Greiner Bio-One) with appropriate DMSO backfill fhr a final DMSO concentration of 0.1%. LL29 cells were plated at 1,500 cells/well in 80 μl/well F12 medium supplemented with 1% Fetal Bovine Serum. One hour after addition of the cells. TGF-β1 (Peprotech; 20 ng/mL) was added to the plates to induce fibrosis (ref. 1 and 2 above), Wells treated with TGF-β1 and containing DMSO were used as controls. Cells were incubated at 37° C. and 5% CO2 for 4 days. Following incubation for 4 days, SYTOX green nucleic acid stain (Life Technologies [Thermo Fisher Scientific]) was added to the wells at a final concentration of 1 uM and incubated at room temperature for 30 min. Cells were then fixed using 4% formaldehyde (Electron Microscopy Sciences), washed 3 times with PBS followed by blocking and penneabilization using 3% Bovine Serum Albumin (BSA; Sigma) and 0.3% Triton X-100 (Sigma) in PBS. Cells were then stained with antibody specific to α-smooth muscle actin (αSMA; Abeam) (ref 1 and 2 above) in 3% Bovine Serum Albumin (BSA; Sigma) and 0.3% Triton X-100 (Sigma) in PBS, and incubated overnight at 4° C. Cells were then washed 3 times with PBS, followed by incubation with Alexa Flor-647 conjugated secondary antibody (Life Technologies [Thermo Fisher Scientific]) and DAPI at room temperature for 1 hour, Cells were then washed 3 times with PBS and plates were sealed for imaging. αSMA staining was imaged by excitation at 630 nm and emission at 665 nm and quantified using the Compartmental Analysis program on the CellInsight CX5 (Thermo Scientific). Dead or apoptotic cells were excluded from analysis based on positive SYTOX green staining. % of total cells positive for αSMA were counted in each well and normalized to the average of 11 wells treated with TGF-β1 on the same plate using Dotmatics' Studies Software. The normalized averages (fold change over untreated) of 3 replicate wells for each compound concentration were used to create dose-responses curves and EC50 values were calculated using non-linear regression curve fit in the Dotmatics' Studies Software. The EC50 values are reported.

[2] = tested on: Wnt activity (Sp5-Luc reporter, TCF/LEF binding sites) in SW480 colon carcinoma cells; assay: Sp5-Luc Wnt reporter gene screening assay in SW480 colon carcinoma cells; assay type: cell-based, human; conditions: Homo sapiens
Excerpt: The screening assay for Wnt activity is described as follows. Reporter cell lines can be generated by stably transducing cancer cell lines (e.g., colon cancer) or primary cells (e.g., IEC-6 intestinal cells) with a lentiviral construct that includes a Wnt-responsive promoter driving expression of the firefly luciferase gene.
SW480 colon carcinoma cells were transduced with a lentiviral vector expressing luciferase with a human Sp5 promoter consisting of a sequence of eight TCF/LEF binding sites. SW480 cells stably expressing the Sp5-Luc reporter gene and a hygromycin resistance gene were selected by treatment with 150 μg/ml of hygroinycin for 7 days. These stably transduced SW480 cells were expanded in cell culture and used for all further screening activities. For Sp5-Luc reporter gene assays, the cells were plated at 10,000 cells/well in 96-well plates with growth medium containing 10% fetal calf serum and incubated overnight at 37° C. and 5% CO2. Each compound was dissolved in DMSO as a 10 mM stock in standard j-vials and used to prepare compound source plates in dose-response format with 3-fold serial dilutions and a 10 mM top concentration. Compound transfer from serially diluted source plates to assay plates containing the cells was accomplished using a pintool (Multimek 96, Beckman equipped with V&P Scientific FP1S50H pins) based liquid handling protocol. This protocol used a slotted pin to transfer 50 nl of compound from a source plate well to an assay plate well containing 50 μl of cells in growth medium. […] Control wells received 50 nl of DMSO treatment for nommlization and calculating IC50 values. The treated cells were incubated at 37° C. and 5% CO2 for an additional forty-two hours. Following incubation, the growth medium was removed and 50 μl of BrightGlo luminescence reagent (Promega) was added to each well of the 96-well assay plates. The plates were placed on an orbital shaker for 5 min and then luminescence was quantified on the Victor3 (Perkin Elmer) plate reader. Readings were normalized to DMSO only treated cells, and normalized activities were utilized for IC50 calculations using the dose-response log (inhibitor) vs. response—variable slope (four parameters) nonlinear regression feature available in GraphPad Prism 5.0 or 6.0.

Compound | IC50 [2] [nM] | EC50 [1] [nM]
CN(C)Cc1cncc(-c2cc3c(-c4nc5c(-c6cccc(F)c6)ccnc5[nH]4)n[nH]c3cn2)c1 [Compound 13, 1-(5-(3-(7-(3-Fluorophenyl)-3H-imidazo[4,5-b]pyridin-2-yl)-1H-pyrazolo[3,4-c]pyridin-5-yl)pyridin-3-yl)-N,N-dimethylmethanamine] | 290 | 745
CCCC(=O)Nc1cncc(-c2cc3c(-c4nc5c(-c6cccc(F)c6)ccnc5[nH]4)n[nH]c3cn2)c1 [Compound 17, N-(5-(3-(7-(3-Fluorophenyl)-3H-imidazo[4,5-b]pyridin-2-yl)-1H-pyrazolo[3,4-c]pyridin-5-yl)pyridin-3-yl)butyramide] | 59.7 | ≤ 9
O=C(Nc1cncc(-c2cc3c(-c4nc5c(-c6cccc(F)c6)ccnc5[nH]4)n[nH]c3cn2)c1)C1CC1 [Compound 19, N -(5-(3-(7-(3-Fluorophenyl)-3H-imidazo[4,5-b]pyridin-2-yl)-1H-pyrazolo[3,4-c]pyridin-5-yl)pyridin-3-yl)cyclopropanecarboxamide] | 46.5 | 301
Fc1ccc(-c2ccnc3[nH]c(-c4n[nH]c5cnc(-c6cncc(CN7CCCC7)c6)cc45)nc23)cc1 [Compound 40, 3-(7-(4-Fluorophenyl)-3H-imidazo[4,5-b]pyridin-2-yl)-5-(5-(pyrrolidn-1-ylmethyl)pyridin-3-yl)-1H-pyrazolo[3,4-c]pyridine] | 321 | 348
CCCC(=O)Nc1cncc(-c2cc3c(-c4nc5c(-c6ccc(F)cc6)ccnc5[nH]4)n[nH]c3cn2)c1 [Compound 43, N-(5-(3-(7-(4-Fluorophenyl)-3H-imidazo[4,5-b]pyridin-2-yl)-1H-pyrazolo[3,4-c]pyridin-5-yl)pyridin-3-yl)butyramide] | 21.2 | 69
O=C(Nc1cncc(-c2cc3c(-c4nc5c(-c6ccc(F)cc6)ccnc5[nH]4)n[nH]c3cn2)c1)C1CCC1 [Compound 46, N-(5-(3-(7-(4-Fluorophenyl)-3H-imidazo[4,5-b]pyridin-2-yl)-1H-pyrazolo[3,4-c]pyridin-5-yl)pyridin-3-yl)cyclobutanecarboxamide] | 50.8 | 240
Fc1ccc(-c2ccnc3[nH]c(-c4n[nH]c5cnc(-c6cncnc6)cc45)nc23)cc1 [Compound 52, 3-(7-(4-Fluorophenyl)-3H-imidazo[4,5-b]pyridin-2-yl)-5-(pyrimidin-5-yl)-1H-pyrazolo[3,4-c]pyridine] | 65.3 | 259

Continued, in another order:

IC50 [2] [nM] | Compound | EC50 [1] [nM]
26.8 | Nc1cncc(-c2cc3c(-c4nc5c(-c6ccccc6F)ccnc5[nH]4)n[nH]c3cn2)c1 [Compound 55, 5-(3-(7-(2-Fluorophenyl)-3H-imidazo[4,5-b]pyridin-2-yl)-1H-pyrazolo[3,4-c]pyridin-5-yl)pyridin-3-amine] | 20
45.5 | CC(C)(C)C(=O)Nc1cncc(-c2cc3c(-c4nc5c(-c6ccccc6F)ccnc5[nH]4)n[nH]c3cn2)c1 [Compound 60] | ≤ 9
128 | CCCC(=O)Nc1cncc(-c2cc3c(-c4nc5c(-c6ccccc6F)ccnc5[nH]4)n[nH]c3cn2)c1 [Compound 69, N-(5-(3-(7-(2-Fluorophenyl)-3H-imidazo[4,5-b]pyridin-2-yl)-1H-pyrazolo[3,4-c]pyridin-5-yl)pyridin-3-yl)butyramide] | 210
36.9 | O=C(Nc1cncc(-c2cc3c(-c4nc5c(-c6ccccc6F)ccnc5[nH]4)n[nH]c3cn2)c1)C1CCCC1 [Compound 73, N-(5-(3-(7-(2-Fluorophenyl)-3H-imidazo[4,5-b]pyridin-2-yl)-1H-pyrazolo[3,4-c]pyridin-5-yl)pyridin-3-yl)cyclopentanecarboxamide] | 324
> 10000 | c1cncc(-c2cc3c(-c4nc5c(-c6cccnc6)ccnc5[nH]4)n[nH]c3cn2)c1 [Compound 82, 5-(Pyridin-3-7-(pyridin-3-yl)-3H-imidazo[4,5-b]pyridin-2-yl)-1H-pyrazolo[3,4-c]pyridine] | ≤ 9
